# In article PMC9569447 (International Journal of Molecular Sciences, 2022):
# Values joined by “and” are separate entries in the source; they are usually repeats but may differ in a detail not shown here. Identical values can stand only once. “Also recorded” adds a separate entry of the source. Marks after values point to notes of the source that are not given here. Numbered stars: 1 amine (or outer) side, 2 acyl side, 3 side chain; on linkers, the order of the positions; unused ones are H or OH. Bridge positions count the residues as written; N and C are the ends. Square brackets hold non-standard residues; d marks the D form. Side chains are listed from the residue outwards. Peptide text beside a SMILES is read from it. * marks the point of attachment. PEG8 = NCCOCCOCCOCCOCCOCCOCCOCCOCCC(=O)O; Palmitoyl = CCCCCCCCCCCCCCCC(=O)*; hCys = N[C@@H](CCS)C(=O)O; X1 = O=C(CC[*:2])[*:1]
# Experiments:
# human V1a receptor = target: T1, human V1a receptor (Homo sapiens, UniProt P37288); assay: In vitro functional assay at V1aR (cytosolic Ca2+ mobilization, fluorimetric); type: cell-based; details: agonist activity, result in words
# T1 construct: expressed in transfected cells; host or cells: CHO
# Protocol: The cells were suspended in DMEM buffer (Invitrogen, Carlsbad, CA, USA) complemented with 0.1% FCS, then distributed in microplates at a density of 4.5 × 10^4 cells/well. The fluorescent probe (Fluo4 Direct, Invitrogen, Carlsbad, CA, USA) mixed with probenicid in HBSS buffer (Invitrogen, Carlsbad, CA, USA) complemented with 20 mM HEPES (Invitrogen; Carlsbad, CA, USA) (pH 7.4) was then added into each well and equilibrated with the cells for 60 min at 37 °C then 15 min at 22 °C. The assay plates were positioned in a microplate reader (CellLux, PerkinElmer, Waltham, MA, USA) followed by the addition of the test compound ASK2131, reference agonist or HBSS buffer (basal control), and the measurements of changes in fluorescence intensity which varies proportionally to the free cytosolic Ca^2+ ion concentration. For stimulated control measurements, AVP at 1 μM was added in separate assay wells. The results were expressed as a percent of the control response to 1 μM AVP. The standard reference agonist was AVP, which was tested in each experiment at several concentrations to generate a concentration-response curve from which its EC50 value was calculated.
# [1] = tested on: diet-induced obese (DIO) Sprague Dawley rats; assay: Post-treatment serum levels after the 22-day treatment; type: in vivo, rat
# Protocol: Cardiac puncture was used to collect blood for analysis 2 h post final injection. Commercially available enzyme-linked immunosorbent assays (ELISA) were used for quantitative assessment of leptin (cat. # EZRL-83K; MilliporeSigma, Burlington, MA, USA), insulin (cat. # EZRMI-13K; MilliporeSigma, Burlington, MA, USA), and adiponectin (cat. # EZRAPD-62K MilliporeSigma, Burlington, MA, USA). Serum samples were diluted 1:500 for the adiponectin ELISA using the sample diluent provided with the kit. All ELISAs were completed following the manufacturers recommendations. Levels of glucose, cholesterol (total, HDL, and calculated LDL), triglycerides, ALT, and AST were determined in the serum on a Modular P chemistry analyzer (Roche Diagnostics, Risch-Rotkreuz, Switzerland) by the University of Washington Nutrition and Obesity Research Center’s Analytic Core (Seattle, WA, USA).
# human V2 receptor = target: T2, human V2 receptor (Homo sapiens, UniProt P30518); assay: In vitro functional assay at V2R (cAMP production, HTRF); type: cell-based; details: result in words
# T2 construct: expressed in transfected cells; host or cells: CHO
# Protocol: Evaluation of the agonist activity of ASK2131 at the human V2 receptor expressed in stably transfected CHO cells was conducted by measuring its effects on cAMP production using the HTRF detection method. The cells were suspended in HBSS buffer (Invitrogen, Carlsbad, CA) complemented with 20 mM HEPES (pH 7.4), 0.01% BSA and 500 μM IBMX, then distributed in microplates at a density of […] cells/well and incubated for 30 min at room temperature in the absence (control) or presence of the test compound or the reference agonist.
# For stimulated control measurement, separate assay wells contained 1 nM AVP. Following incubation, the cells were lysed, and the fluorescence acceptor (D2-labeled cAMP) and fluorescence donor (anti-cAMP antibody labeled with europium cryptate) were added. After 60 min at room temperature, the fluorescence transfer was measured at λex = 337 nm and λem = 620 and 665 nm using a microplate reader (Envision, Perkin Elmer, Waltham, MA, USA). The cAMP concentration was determined by dividing the signal measured at 665 nm by that measured at 620 nm (ratio).
# The results were expressed as a percent of the control response to 1 nM AVP. The standard reference agonist was AVP, which was tested in each experiment at several concentrations to generate a concentration-response curve from which its EC50 value was calculated.
# [2] = Pharmacokinetics after subcutaneous administration to rats; details: sc, 300 nmol/kg
# Protocol: Whole blood samples were immediately centrifuged at 4 °C; separated plasma (~100 uL) was pipetted into micro centrifuge tubes, flash frozen on dry ice, and stored at −80 °C. Quantitative analysis plasma samples were performed by Alturas Analytics (Moscow, ID, USA) via peptide extraction from acidified plasma with acetonitrile followed by LC-MS/MS analysis.
# [3] = tested on: diet-induced obese (DIO) Sprague Dawley rats; type: in vivo
# Description: Male Sprague Dawley rats were fed 60% HF diet (formula: D12492; Research Diets, Inc; New Brunswick, NJ, USA; 5.21 kcal/g) for 16 weeks prior to the start of the study. Rats were then singly housed in BioDAQ cages (Research Diets, Inc.; New Brunswick, NJ, USA) and allowed to acclimate to their new environment for 10 days. Baseline measures of body weight, food intake and water intake were taken for one week to balance the groups and create feeding pairs. Each group (n = 6 animals/group) averaged 714.47 ± 81.60 g at baseline (Table 3).
# Effects of ASK2131 were compared to a vehicle-treated group, OXT-treated group, as well as a pair-fed control group. Three days of baseline measures were taken before subcutaneous treatment administration began on day 4 of the study. Assessments were made to body weight, food intake and water intake. ASK2131 was administered at 50 nmol/kg throughout the entire study period. […] OXT-treated animals were started at 50 nmol/kg dose for two days, followed by 150 nmol/kg, then 300 nmol/kg, until ending at 600 nmol/kg for the remainder of the study.
# [4] = serum ELISA, after 22 days, mean ± SEM, n = 6 (Oxytocin n = 4)
# [5] = serum, 2 h post final injection after 22 days, mean ± SEM, n = 6 (Oxytocin n = 4)
# [6] = male, Sprague Dawley, rat, plasma
# T2 sequence (P30518 whole entry): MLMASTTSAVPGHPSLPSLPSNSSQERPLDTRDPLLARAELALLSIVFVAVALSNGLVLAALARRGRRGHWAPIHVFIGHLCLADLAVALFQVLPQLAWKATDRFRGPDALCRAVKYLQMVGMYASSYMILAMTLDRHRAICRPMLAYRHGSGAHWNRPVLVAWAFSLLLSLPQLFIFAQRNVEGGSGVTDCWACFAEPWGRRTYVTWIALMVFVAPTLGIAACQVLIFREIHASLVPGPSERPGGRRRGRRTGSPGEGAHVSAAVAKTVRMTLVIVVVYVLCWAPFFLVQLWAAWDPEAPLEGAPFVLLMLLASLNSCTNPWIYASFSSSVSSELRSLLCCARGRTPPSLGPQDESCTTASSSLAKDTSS
# T1 sequence (P37288 whole entry): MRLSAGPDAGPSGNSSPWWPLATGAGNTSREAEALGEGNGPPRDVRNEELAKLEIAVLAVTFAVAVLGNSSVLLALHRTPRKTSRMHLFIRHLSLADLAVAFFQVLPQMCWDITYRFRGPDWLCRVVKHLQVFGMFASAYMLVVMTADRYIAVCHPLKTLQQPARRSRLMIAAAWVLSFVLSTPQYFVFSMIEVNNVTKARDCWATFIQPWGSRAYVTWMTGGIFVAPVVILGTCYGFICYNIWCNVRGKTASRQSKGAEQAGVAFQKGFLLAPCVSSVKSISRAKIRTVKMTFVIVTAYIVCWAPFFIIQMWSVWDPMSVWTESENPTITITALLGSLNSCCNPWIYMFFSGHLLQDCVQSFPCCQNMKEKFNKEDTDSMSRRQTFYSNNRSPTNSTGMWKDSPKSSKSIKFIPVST
smiles,measurement,setting,value
CCCCCCCCCCCCCCCC(=O)NCCOCCOCCOCCOCCOCCOCCOCCOCCC(=O)NCCCC[C@H](NC(=O)CNC(=O)[C@@H]1CCSCCC(=O)N[C@@H](Cc2ccc(O)cc2)C(=O)N[C@@H]([C@@H](C)CC)C(=O)N[C@@H](CCC(N)=O)C(=O)N[C@@H](CC(N)=O)C(=O)N1)C(=O)NCC(N)=O [ASK2131] (YIQN[hCys]GK([PEG8-Palmitoyl])G-NH2; linker N-5 via X1),V1aR activation,human V1a receptor,"did not display V1aR activation; also recorded: Neither molecule, ASK1476 or ASK2131, is active"
same,Calculated LDL,"[1]; Calculated LDL = Cholesterol − (HDL + Triglycerides/5), serum after 22 days, mean ± SEM",15 ± 5 mg/dL
same,Cholesterol vs. vehicle treated animals,"[1]; after 22 days of treatment, result in words",significantly reduced
same,Insulin,[1]; [4],6.7 ± 1.0 ng/mL
same,Leptin,[1]; [4],39 ± 9.1 ng/mL
same,Adiponectin,"[1]; serum ELISA, diluted 1:500, after 22 days, mean ± SEM, n = 6 (Oxytocin n = 4)",62.4 ± 7.3 ng/mL
same,ALT,[1]; [5],26 ± 2 U/L
same,AST,[1]; [5],73 ± 8 U/L
same,Cholesterol,[1]; [5],67 ± 6 ^b mg/dL
same,Glucose,[1]; [5],237 ± 12 mg/dL
same,HDL,[1]; [5],21 ± 2 mg/dL
same,Triglycerides,[1]; [5],182 ± 30 mg/dL
same,V2R activation,human V2 receptor,potent activator of V2R; also recorded: activate V2R
same,Cmax,[2]; [6],276 nM
same,Tmax,[2]; [6],4 h
same,clearance,[2]; [6],1.2 mL/min/kg
same,Cmax (total maximal plasma concentration),"[2]; male lean Sprague Dawley rats, n = 5 per group, LC-MS/MS",276 nM
same,Tmax,"[2]; male lean Sprague Dawley rats, n = 5 per group, plasma, LC-MS/MS",4 h
same,decrease in food intake,"[3]; 50 nmol/kg, first 8 days of treatment",35%
same,reduction in food intake,"[3]; 50 nmol/kg, last 8 days of treatment",25%
same,average decline in food intake,"[3]; 50 nmol/kg, whole 22-day treatment",28%
same,"body weight, predicted mean difference (PMD) vs vehicle-treated group","[3]; after 2 days of drug administration, 50 nmol/kg sc, 95% CI −6.52 to −1.15%, p = 0.0011",−3.83%
same,"body weight, predicted mean difference (PMD) vs OXT-treated group","[3]; after 2 days of drug administration, both 50 nmol/kg sc, 95% CI −6.45 to −1.08%, p = 0.0014",−3.77%
same,Posttreatment body weight,"[3]; after 22 days once daily sc, ASK2131 50 nmol/kg, OXT titrated 50 to 600 nmol/kg, n = 6, mean ± SEM",676 ± 42 g
same,% change in body weight,"[3]; after 22 days vs baseline, once daily sc, ASK2131 50 nmol/kg, OXT titrated 50 to 600 nmol/kg, n = 6, mean ± SEM","−6.6 ± 1.3% and −6.6 ± 1.3 ^c,d %"
same,body weight reduction compared to baseline,"[3]; after 22 days, ASK2131 50 nmol/kg sc daily, mean ± standard error",6.6 ± 1.3%
same,"body weight change, mean difference (MD) vs vehicle","[3]; after 22 days, ASK2131 50 nmol/kg/d, 95% CI −15.6 to −7.4, p < 0.0001",−11.5%
same,"cumulative food intake, mean difference (MD) vs vehicle","[3]; after 22 days, ASK2131 50 nmol/kg/d, 95% CI −1031 to −213.1, p < 0.0008",-621.9 kcal
same,reduction of food intake compared to baseline,"[3]; day 3, 50 nmol/kg/d sc",39 ± 9%
same,"food intake, predicted mean difference (PMD) vs vehicle-treated group","[3]; day 3, 50 nmol/kg/d sc, 95% CI −80.47 to −11.51%, p = 0.0102",−45.99%
same,tolerability,"[3]; rat, in vivo",well tolerated
same,water intake,"[3]; rat, in vivo",without relevant changes of water intake
same,body weight reduction (weight loss) vs vehicle at end of treatment,"[3]; study completion, 22 days, ASK2131 50 nmol/kg, OXT titrated up to 600 nmol/kg",11.5%
